Test systems include A549 NSCLC; RXF 393 renal; HCC-2998 colon; CCRF-CEM leukemia; MCF7 breast; NCI-H226 lung; TK-10 renal; OVCAR-4 ovarian; MDA-MB-231 breast; LOX IMVI melanoma.
Holding throughout (experiment): NCI tumour cell line growth inhibition, 48 h

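96-well plates; 48 h exposure; 5 concentrations. Endpoints by linear interpolation between flanking doses. Not reached: highest tested concentration assigned. TGI: concentration producing complete growth inhibition.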

In the case of `COC(=O)N1CC(=O)C(C(=O)NC23CC4CC(CC(C4)C2)C3)C1` (centres undefined), the TGI in the assay on A549 NSCLC, in the assay with RXF 393 renal, with HCC-2998 colon, in the assay with CCRF-CEM leukemia, in the assay on MCF7 breast and with NCI-H226 lung was greater than 100 µM each time. Besides, the TGI in the assay with TK-10 renal, in the assay with OVCAR-4 ovarian and with MDA-MB-231 breast was greater than 100 µM each time.
For the compound `COc1ccc(/C=C2/CSCC3=C2NC(=S)NC3c2ccc(OC)c(OC)c2OC)c(OC)c1OC` (centres undefined), the TGI with A549 NSCLC was 95.9 µM; with LOX IMVI melanoma it was 58.3 µM; with RXF 393 renal, 52.9 µM; in the assay on HCC-2998 colon it was 77.9 µM; in the assay on CCRF-CEM leukemia, greater than 100 µM; in the assay with MCF7 breast, greater than 100 µM. The TGI in the assay on NCI-H226 lung amounted to 99.3 µM; in the assay with TK-10 renal it was 75.5 µM; with OVCAR-4 ovarian, 74.4 µM; with MDA-MB-231 breast, 59.4 µM.
Regarding `COc1cccc(C23CCCC(C2)NCC3Br)c1OC` (centres undefined), the TGI in the assay on A549 NSCLC was greater than 100 µM; in the assay with LOX IMVI melanoma, greater than 100 µM; in the assay on RXF 393 renal, greater than 100 µM; with CCRF-CEM leukemia, 99.3 µM; with MCF7 breast it was 57.3 µM; with NCI-H226 lung, 5.37 µM. For the same compound, the TGI in the assay on TK-10 renal, with OVCAR-4 ovarian and in the assay on MDA-MB-231 breast was greater than 100 µM each time.
For the compound `CCc1c2c(cc3c1CC1(C3)Cc3cc4c(c(C(=O)OC)c3C1)CCCC4)CCCC2` (centres undefined), the TGI in the assay with A549 NSCLC, with LOX IMVI melanoma, in the assay with RXF 393 renal, with HCC-2998 colon, with CCRF-CEM leukemia and in the assay with MCF7 breast was greater than 100 µM throughout. The TGI in the assay with NCI-H226 lung, in the assay on TK-10 renal, with OVCAR-4 ovarian and in the assay with MDA-MB-231 breast was greater than 100 µM in each case.
Consider `Clc1cc2nn(C3CCCCO3)nc2cc1Cl` (centres undefined), for which the TGI in the assay on A549 NSCLC, in the assay on RXF 393 renal, in the assay with HCC-2998 colon, with CCRF-CEM leukemia, with MCF7 breast and in the assay on NCI-H226 lung was greater than 100 µM in each case. The TGI with TK-10 renal, in the assay with OVCAR-4 ovarian and with MDA-MB-231 breast was greater than 100 µM in each case.
Take `O=P1(c2ccccc2)c2ccccc2-c2ccccc21`: the TGI in the assay with A549 NSCLC, in the assay with LOX IMVI melanoma, in the assay on RXF 393 renal, with HCC-2998 colon, in the assay on CCRF-CEM leukemia and in the assay with MCF7 breast was greater than 100 µM throughout. For the same compound, the TGI with NCI-H226 lung, in the assay on TK-10 renal and with MDA-MB-231 breast was greater than 100 µM each time.
As to `CCOC(=O)c1cc(-n2nnc3ccccc32)cn1C`, the TGI in the assay with A549 NSCLC, in the assay with LOX IMVI melanoma, in the assay on RXF 393 renal, in the assay on HCC-2998 colon, in the assay on CCRF-CEM leukemia and in the assay with MCF7 breast was greater than 10 µM in each case. Moreover, the TGI in the assay on NCI-H226 lung, with TK-10 renal, in the assay with OVCAR-4 ovarian and in the assay with MDA-MB-231 breast was greater than 10 µM in each case.
As for `CN(CC(=O)O)c1ncc2c(n1)C=CCC2`, the TGI in the assay on A549 NSCLC, in the assay with LOX IMVI melanoma, with RXF 393 renal, with CCRF-CEM leukemia, with MCF7 breast and in the assay with NCI-H226 lung was greater than 100 µM each time. Also, the TGI in the assay with TK-10 renal, in the assay with OVCAR-4 ovarian and in the assay on MDA-MB-231 breast was greater than 100 µM in each case.
As for `O=C1CSC(c2c[nH]c3ccccc23)N1c1ccc(Cl)cc1` (centres undefined), the TGI with A549 NSCLC, in the assay with RXF 393 renal, in the assay with HCC-2998 colon, in the assay with MCF7 breast, in the assay on NCI-H226 lung and in the assay on TK-10 renal was greater than 100 µM throughout. For the same compound, the TGI with OVCAR-4 ovarian and in the assay with MDA-MB-231 breast was greater than 100 µM throughout.
For `CCOC(=O)/C=C(\C(=O)OCC)n1ccc(=O)n(Cc2cnnn2CCCCOC(C)=O)c1=O`, the TGI was determined as 40.2 µM in the assay with A549 NSCLC; 17.6 µM in the assay on LOX IMVI melanoma; 2.16 µM with RXF 393 renal; 35.5 µM in the assay on HCC-2998 colon; 18.8 µM in the assay on MCF7 breast; 39.4 µM in the assay with NCI-H226 lung. The TGI in the assay with TK-10 renal was 8.96 µM; in the assay on OVCAR-4 ovarian, 30.2 µM; in the assay on MDA-MB-231 breast, 38.1 µM.
As for `Oc1ccc([C@H]2c3c(O)cc(O)cc3C3c4c(cc(O)cc4[C@@H]2[C@H]2c4cc(O)cc5c4C(c4cc(O)cc(O)c4[C@@H]2c2ccc(O)cc2)[C@@H](c2ccc(O)cc2)O5)O[C@@H]3c2ccc(O)cc2)cc1` (some centres undefined), the TGI in the assay with A549 NSCLC was greater than 100 µM; in the assay with LOX IMVI melanoma, greater than 100 µM; in the assay with RXF 393 renal it was 0.428 µM; in the assay on CCRF-CEM leukemia, greater than 100 µM; with MCF7 breast, greater than 100 µM; in the assay on NCI-H226 lung it was greater than 100 µM. The figures for the TGI in the assay with TK-10 renal, in the assay with OVCAR-4 ovarian and in the assay with MDA-MB-231 breast were greater than 100 µM, 8.53 µM and greater than 100 µM, respectively.
As for `c1cc(-c2ccc(-c3ccc(-c4ccc(-c5ccncc5)o4)cc3)o2)ccn1`, the TGI in the assay with A549 NSCLC is 35.7 µM; with LOX IMVI melanoma, 42.8 µM; with RXF 393 renal, greater than 100 µM; in the assay with HCC-2998 colon, 33.1 µM; in the assay on CCRF-CEM leukemia it was 30.2 µM; in the assay with MCF7 breast, 38.7 µM. The TGI with NCI-H226 lung turned out to be 56 µM; in the assay on TK-10 renal it was 31.2 µM; in the assay with OVCAR-4 ovarian, 65.4 µM; with MDA-MB-231 breast it was 63.8 µM.
As for `CCCNC(=S)N/N=C(\C)c1ccc(S(=O)(=O)N(C)c2ccccc2)cc1`, the TGI with A549 NSCLC was greater than 100 µM; with LOX IMVI melanoma, greater than 100 µM; in the assay on RXF 393 renal it was 38.2 µM; in the assay with HCC-2998 colon, greater than 100 µM; with CCRF-CEM leukemia it was greater than 31.6 µM; in the assay on MCF7 breast, greater than 100 µM. The TGI in the assay with NCI-H226 lung was greater than 75.6 µM; in the assay with TK-10 renal it was greater than 91.6 µM; with OVCAR-4 ovarian it was greater than 100 µM; with MDA-MB-231 breast, greater than 100 µM.
For `COc1cccc(/C=N/NC(=O)CSCC(=O)N/N=C/c2cccc(OC)c2OC)c1OC`, the TGI in the assay on A549 NSCLC, in the assay with RXF 393 renal, with HCC-2998 colon, in the assay with MCF7 breast, in the assay on NCI-H226 lung and in the assay on TK-10 renal was greater than 100 µM each time. For the same compound, the TGI in the assay with OVCAR-4 ovarian and in the assay with MDA-MB-231 breast was greater than 100 µM each time.

The record behind these values is PubChem BioAssay (NCI).
